In US9371294B2, “Cycloalkenyl aryl derivatives for CETP inhibitor” (CHONG KUN DANG PHARMACEUTICAL CORP., priority 2011, dated 2016):

How the values were obtained:
golden syrian hamsters = test: Test for anti-hyperlipidemia activity in hamsters (blood HDL-c levels); assay type: in vivo; settings: male golden syrian hamsters; 3 mg/kg orally for 5 days; serum HDL-cholesterol 4 hours after last administration; vs vehicle control
From the text: […] Test for Anti-Hyderlipidemia Activity in Hamsters
1. Experimental animals As test animals, 8-week-old male golden syrian hamsters were purchased and used in the experimental. The animal facility was kept at constant temperature and constant humidity with a 12-hr dark/12-hr light cycle, and the animals were allowed to access food and water ad libitum.
2. Experimental for Anti-Hyperlipidemia Activity in Hamsters
The test animals were used in the test after an acclimation of 1 week. The test animals were divided according to body weight into several groups, each consisting of 5-8 animals. 3 mg/kg of each test compound (CETP inhibitor) was administered orally to the animals. Each test compounds was suspended in a solvent vehicle that is a solution of 5% ethanol, 10% solutol and 85% deionized water (DW), to be used. Each of test compounds suspended in a solvent vehicle was administered orally to the […] for 5 days. To the control group, a solvent vehicle itself was administered. And then, after 4 hours from the last administration, blood was collected through the cardiac puncture. The collected blood was centrifuged at 3000 rpm for 15 minutes, and the concentration of HDL-cholesterol (Biosystem) in the separated serum was measured using a biochemical analyzer (ILab 300 plus, Instrumentation Laboratory).
3. Statistical Processing
All the results were expressed as mean±SEM, and each test group and the control group were compared using one-way ANOVA test (Dunnett's test, p<0.001) in order to determine the effect of each test group.

[1] = molecular target: T1, cholesteryl ester transfer protein (Homo sapiens, UniProt P11597); test: In vitro test for the ability to inhibit cholesteryl ester transfer; assay type: biochemical; settings: [3H]-cholesteryl oleate transfer from rHDL-agarose to LDL; human plasma as CETP source; 37° C.; 16-10000 nM, duplicate
T1 construct: As a source of cholesteryl ester transfer protein, plasma from healthy humans was used; from tissue; host or cells: plasma from healthy humans
T1 sequence (P11597 18-493): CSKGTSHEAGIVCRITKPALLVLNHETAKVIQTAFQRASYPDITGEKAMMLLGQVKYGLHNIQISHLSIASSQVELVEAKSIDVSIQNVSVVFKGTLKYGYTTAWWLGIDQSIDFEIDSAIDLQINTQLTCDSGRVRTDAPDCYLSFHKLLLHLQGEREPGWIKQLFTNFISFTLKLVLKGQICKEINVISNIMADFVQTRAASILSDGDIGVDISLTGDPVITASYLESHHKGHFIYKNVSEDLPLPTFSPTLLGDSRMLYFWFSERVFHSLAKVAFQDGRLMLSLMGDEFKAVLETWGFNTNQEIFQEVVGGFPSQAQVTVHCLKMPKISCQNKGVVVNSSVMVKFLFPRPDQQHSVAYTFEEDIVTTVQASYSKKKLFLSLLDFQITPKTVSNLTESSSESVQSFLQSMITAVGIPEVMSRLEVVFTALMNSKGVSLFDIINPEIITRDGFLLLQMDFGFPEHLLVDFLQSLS
Method in brief: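 Human plasma served as the CETP source, with human LDL (0.25 mg/ml) as acceptor and agarose-immobilised recombinant HDL carrying [3H]-cholesteryl oleate (0.25 mg/ml) as donor, at 37 °C. Compounds were run in duplicate at 16–10000 nM. Transferred radioactivity in the supernatant was counted by beta detection, and IC50 was fitted from the fraction of label transferred to LDL.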

Q: For `COc1cc(F)c(C(C)C)cc1C1=C(CN2C(=O)O[C@H](c3cc(C(F)(F)F)cc(C(F)(F)F)c3)[C@@H]2C)CC(C)(C)CC1` [Compound 19, (4S,5R)-5-(3,5-bis(trifluoromethyl)phenyl)-3-((2-(4-fluoro-5-isopropyl-2-methoxyphenyl)-5,5-dimethylcyclohex-1-enyl)methyl)-4-methyloxazolidin-2-one], which “HDL-c Increase (%)” value (golden syrian hamsters) is on record?
A: 35%

Q: Which results are given for `COc1cc(F)c(C(C)C)cc1C1=C(CN2C(=O)O[C@H](c3cc(C(F)(F)F)cc(C(F)(F)F)c3)[C@@H]2C)CC(C)CC1` (stereo partly drawn) [Compound 25]?
A: IC50 [1]: 200 nM; HDL-c Increase (%) (golden syrian hamsters): 33%

Q: With `COC(=O)c1ccc(OC)c(C2=C(CN3C(=O)O[C@H](c4cc(C(F)(F)F)cc(C(F)(F)F)c4)[C@@H]3C)CCCC2)c1` [Compound 36, methyl 3-(2-(((4S,5R)-5-(3,5-bis(trifluoromethyl)phenyl)-4-methyl-2-oxooxazolidin-3-yl)methyl)cyclohex-1-enyl)-4-methoxybenzoate] as the compound, how does the IC50 [1] read?
A: 1090 nM

Q: And the “HDL-c Increase (%)” value (golden syrian hamsters)?
A: 11%

Q: With `COc1ccc(N(C)C(=O)C(C)C)cc1C1=C(CN2C(=O)O[C@H](c3cc(C(F)(F)F)cc(C(F)(F)F)c3)[C@@H]2C)CC(C)(C)CC1` [Compound 113, N-(3-(2-(((4S,5R)-5-(3,5-bis(trifluoromethyl)phenyl)-4-methyl-2-oxooxazolidin-3-yl)methyl)-4,4-dimethylcyclohex-1-enyl)-4-methoxyphenyl)-N-methylisobutyramide] as the compound, how does the “HDL-c Increase (%)” value (golden syrian hamsters) read?
A: 17%

Q: `COC(=O)CC(C)(C)c1ccc(OC)c(C2=C(CN3C(=O)O[C@H](c4cc(C(F)(F)F)cc(C(F)(F)F)c4)[C@@H]3C)CC(C)(C)CC2)c1` [Compound 308, methyl 3-(3-(2-(((4S,5R)-5-(3,5-bis(trifluoromethyl)phenyl)-4-methyl-2-oxooxazolidin-3-yl)methyl)-4,4-dimethylcyclohex-1-enyl)-4-methoxyphenyl)-3-methylbutanoate] was tested. Which IC50 [1] did it give?
A: 7 nM

Q: Which IC50 [1] does the source give for `COc1ccc(CC2(C(=O)O)CCC2)cc1C1=C(CN2C(=O)O[C@H](c3cc(C(F)(F)F)cc(C(F)(F)F)c3)[C@@H]2C)CC(C)(C)CC1` [Compound 313, 1-(3-(2-(((4S,5R)-5-(3,5-bis(trifluoromethyl)phenyl)-4-methyl-2-oxooxazolidin-3-yl)methyl)-4,4-dimethylcyclohex-1-enyl)-4-methoxybenzyl)cyclobutanecarboxylic acid] here?
A: 20 nM

Q: Which IC50 [1] does the source give for `COc1ncc(C(F)(F)F)cc1C1=C(CN2C(=O)O[C@H](c3cc(C(F)(F)F)cc(C(F)(F)F)c3)[C@@H]2C)CC(C)(C)CC1` [Compound 316, (4S,5R)-5-(3,5-bis(trifluoromethyl)phenyl)-3-((2-(2-methoxy-5-(trifluoromethyl)pyridin-3-yl)-5,5-dimethylcyclohex-1-enyl)methyl)-4-methyloxazolidin-2-one] here?
A: 30 nM

Q: Which IC50 [1] does the source give for `COC(=O)Cc1cc2c(c(C3=C(CN4C(=O)O[C@H](c5cc(C(F)(F)F)cc(C(F)(F)F)c5)[C@@H]4C)CC(C)(C)CC3)c1)OCO2` [Compound 317, methyl 2-(7-(2-(((4S,5R)-5-(3,5-bis(trifluoromethyl)phenyl)-4-methyl-2-oxooxazolidin-3-yl)methyl)-4,4-dimethylcyclohex-1-enyl)benzo[d][1,3]dioxol-5-yl)acetate] here?
A: 54 nM

Q: `CNC(=O)C(C)(C)Cc1ccc(OC)c(C2=C(CN3C(=O)O[C@H](c4cc(C(F)(F)F)cc(C(F)(F)F)c4)[C@@H]3C)CC(C)(C)CC2)c1` [Compound 321, 3-(3-(2-(((4S,5R)-5-(3,5-bis(trifluoromethyl)phenyl)-4-methyl-2-oxooxazolidin-3-yl)methyl)-4,4-dimethylcyclohex-1-enyl)-4-methoxyphenyl)-N,2,2-trimethylpropanamide] was tested. Which IC50 [1] did it give?
A: 104 nM

Q: For `COC(=O)C1(Cc2ccc(OC)c(C3=C(CN4C(=O)O[C@H](c5cc(C(F)(F)F)cc(C(F)(F)F)c5)[C@@H]4C)CC(C)(C)CC3)c2)CCCC1` [Compound 323, methyl 1-(3-(2-(((4S,5R)-5-(3,5-bis(trifluoromethyl)phenyl)-4-methyl-2-oxooxazolidin-3-yl)methyl)-4,4-dimethylcyclohex-1-enyl)-4-methoxybenzyl)cyclopentanecarboxylate], which IC50 [1] is on record?
A: 58 nM

Q: How did the IC50 [1] turn out when `COc1ccc(CC2(C(=O)O)CCCC2)cc1C1=C(CN2C(=O)O[C@H](c3cc(C(F)(F)F)cc(C(F)(F)F)c3)[C@@H]2C)CC(C)(C)CC1` [Compound 324, 1-(3-(2-(((4S,5R)-5-(3,5-bis(trifluoromethyl)phenyl)-4-methyl-2-oxooxazolidin-3-yl)methyl)-4,4-dimethylcyclohex-1-enyl)-4-methoxybenzyl)cyclopentanecarboxylic acid] was run?
A: 97 nM

Q: Which IC50 [1] does the source give for `COc1cc(F)c(CC(C)(C)C(N)=O)cc1C1=C(CN2C(=O)O[C@H](c3cc(C(F)(F)F)cc(C(F)(F)F)c3)[C@@H]2C)CC(C)(C)CC1` [Compound 329, 3-(5-(2-(((4S,5R)-5-(3,5-bis(trifluoromethyl)phenyl)-4-methyl-2-oxooxazolidin-3-yl)methyl)-4,4-dimethylcyclohex-1-enyl)-2-fluoro-4-methoxyphenyl)-2,2-dimethylpropanamide] here?
A: 9 nM

Q: Which IC50 [1] does the source give for `COc1ccc(-c2nnn(C)n2)cc1C1=C(CN2C(=O)O[C@H](c3cc(C(F)(F)F)cc(C(F)(F)F)c3)[C@@H]2C)CC(C)(C)CC1` [Compound 338, (4S,5R)-5-(3,5-bis(trifluoromethyl)phenyl)-3-((2-(2-methoxy-5-(2-methyl-2H-tetrazol-5-yl)phenyl)-5,5-dimethylcyclohex-1-enyl)methyl)-4-methyloxazolidin-2-one] here?
A: 35 nM

Q: `COc1ccc(CC(C)(C)c2nn[nH]n2)cc1C1=C(CN2C(=O)O[C@H](c3cc(C(F)(F)F)cc(C(F)(F)F)c3)[C@@H]2C)CC(C)(C)CC1` [Compound 340, (4S,5R)-5-(3,5-bis(trifluoromethyl)phenyl)-3-((2-(2-methoxy-5-(2-methyl-2-(2H-tetrazol-5-yl)propyl)phenyl)-5,5-dimethylcyclohex-1-enyl)methyl)-4-methyloxazolidin-2-one] was tested. Which IC50 [1] did it give?
A: 8 nM

Q: `COc1ccc(CC(C)(C)c2nnn(C)n2)cc1C1=C(CN2C(=O)O[C@H](c3cc(C(F)(F)F)cc(C(F)(F)F)c3)[C@@H]2C)CC(C)(C)CC1` [Compound 341, (4S,5R)-5-(3,5-bis(trifluoromethyl)phenyl)-3-((2-(2-methoxy-5-(2-methyl-2-(2-methyl-2H-tetrazol-5-yl)propyl)phenyl)-5,5-dimethylcyclohex-1-enyl)methyl)-4-methyloxazolidin-2-one] was tested. Which IC50 [1] did it give?
A: 13 nM

Q: How did the IC50 [1] turn out when `COc1ncc(CC(C)(C)C(=O)O)cc1C1=C(CN2C(=O)O[C@H](c3cc(C(F)(F)F)cc(C(F)(F)F)c3)[C@@H]2C)CC(C)(C)CC1` [Compound 350, 3-(5-(2-(((4S,5R)-5-(3,5-bis(trifluoromethyl)phenyl)-4-methyl-2-oxooxazolidin-3-yl)methyl)-4,4-dimethylcyclohex-1-enyl)-6-methoxypyridin-3-yl)-2,2-dimethylpropanoic acid] was run?
A: 51 nM

Q: How did the IC50 [1] turn out when `COc1ccc(Cl)cc1C1=C(CN2C(=O)O[C@H](c3cc(C(F)(F)F)cc(C(F)(F)F)c3)[C@@H]2C)CC(C)(C)CC1` [Compound 353, (4S,5R)-5-(3,5-bis(trifluoromethyl)phenyl)-3-((2-(5-chloro-2-methoxyphenyl)-5,5-dimethylcyclohex-1-enyl)methyl)-4-methyloxazolidin-2-one] was run?
A: 30 nM

Q: With `COc1ccc(C(C)C)nc1C1=C(CN2C(=O)O[C@H](c3cc(C(F)(F)F)cc(C(F)(F)F)c3)[C@@H]2C)CC(C)(C)CC1` [Compound 366, (4S,5R)-5-(3,5-bis(trifluoromethyl)phenyl)-3-((2-(6-isopropyl-3-methoxypyridin-2-yl)-5,5-dimethylcyclohex-1-enyl)methyl)-4-methyloxazolidin-2-one] as the compound, how does the IC50 [1] read?
A: 6 nM

Q: `COc1ccc(CN2CC[C@H](F)C2)cc1C1=C(CN2C(=O)O[C@H](c3cc(C(F)(F)F)cc(C(F)(F)F)c3)[C@@H]2C)CC(C)(C)CC1` [Compound 367, (4S,5R)-5-(3,5-bis(trifluoromethyl)phenyl)-3-((2-(5-(((S)-3-fluoropyrrolidin-1-yl)methyl)-2-methoxyphenyl)-5,5-dimethylcyclohex-1-enyl)methyl)-4-methyloxazolidin-2-one] was tested. Which IC50 [1] did it give?
A: 83 nM
